In US20070213291A1, “Therapeutically useful synthetic oligonucleotides” (priority 1999, published 2007):

How the values were obtained:
caspase 3 [1] = assay: Active caspase 3 by FITC-conjugated antibody flow cytometry; assay type: cell-based, human; conditions: Jurkat, 72 h, 100 μg/ml, cytometric (FIG. 2A)
Experimental: (§1) To determine caspase activation, control and treated cells are washed, fixed, permeabilized and incubated with an FITC-conjugated antibody that recognizes the active form of the caspase (Pharmingen, San Diego, Calif.) using the conditions recommended by the manufacturer. Fluorescence associated with active caspase 3 is analyzed by flow cytometry on a FACSCALIBUR using the program CellQUEST (Becton Dickinson). Alternatively, caspase activation is determined colorimetrically using an assay based on the cleavage of a caspase-specific peptide conjugated to the color reporter molecule p-nitroanilide, which can be quantitated spectrophotometrically at a wavelength of 405 nm.
(§2) Jurkat T cell leukemia cells were incubated for 72 h with 33 base GT SEQ ID NO:66; 11 base GT SEQ ID NO:81 (bases 1-11 of GT SEQ ID NO:66), 11 base GT SEQ ID NO:82 (bases 12-22 of GT SEQ ID NO:66), 11 base GT SEQ ID NO:83 (bases 23-33 of GT SEQ ID NO:66) and 15 base ACG SEQ ID NO:67. Active caspase 3 (17-22 kDa) was determined using FITC conjugated antibody (Clone: C92-605) as in Example 28.

[2] = tested on: Jurkat human leukemia T cells; assay: Inhibition of Jurkat human leukemia T cell proliferation (MTT reduction); assay type: cell-based; conditions: for % INHIBITION of Jurkat human leukemia T cell proliferation: 100 μg/ml sequence, 48 h, 2.5×10^5 cells/ml
Summary of the method: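 Read-out is MTT absorbance at 570 nm after 48 h. Sequences of 2 to 45 bases (A, C, G, T) tested at 100 μg/ml against untreated control, with 2.5×10^5 Jurkat cells/ml held at 37° C under 5% CO2.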

caspase 3 [3] = assay: Caspase 3 activation, colorimetric (p-nitroanilide peptide cleavage); assay type: cell-based, human; conditions: Jurkat, 72 h, 100 μg/ml
Experimental: as §1, §2
Caspase 3 activation also was determined colorimetrically as in Example 28.
Jurkat T cell leukemia cells were incubated for 72 h with 6 base GT SEQ ID NO:25. Caspase 3 activation was determined colorimetrically as in Example 28.

[4] = tested on: Jurkat human leukemia T cells; assay: Apoptosis by phosphatidylserine/annexin V-FITC flow cytometry; assay type: cell-based; conditions: M. phlei murA derived sequences
Summary of the method: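 Jurkat cells were exposed to 3–7-base oligonucleotides (GT, ACGT, AG, GG, AGT, CGT sequences) at 50 μM. Separately, 6-base GT and complementary AC sequences, alone or hybridized 1:1 (10 min, 65 °C), were applied for 24 h. Phosphatidylserine exposure was quantified by flow cytometry with FITC-annexin V.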

[5] = tested on: Jurkat human leukemia T cells; assay: Cell cycle stage in Jurkat cells (propidium iodide flow cytometry); assay type: cell-based; conditions: Jurkat; for % of cells in phase: G0/G1 / % of cells in phase: G2/M / % of cells in phase: SE / % of cells in phase: SL / % of cells in phase: SM / Arrest (cell cycle): 24 h, 100 μg/ml
Summary of the method: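 Phase distribution (G0/G1, early, mid and late S, G2/M) came from flow cytometry with doublet discrimination on propidium iodide-stained nuclei. Jurkat cells were given 24 h exposure to 2–45-base oligonucleotides, or at 1×10^6 cells/ml to single 6-base GT or AC strands heated 10 min at 65 °C or 1:1 hybridized duplex.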

[6] = tested on: D-17 canine osteosarcoma cells; assay: Inhibition of D-17 cell proliferation (MTT); assay type: cell-based; conditions: 100 μg/ml, 48 h, 5×10^5 cells/ml
Experimental: (§3) Cells were seeded in 6 (1 ml/well), 24 (0.5 ml/well) or 96 (0.1 ml/well) well flat-bottom microplates and were maintained at 37° C. in a 5% CO2 atmosphere. Unless stated otherwise, 2.5×10^5 cells/ml were incubated with 0 μg/ml (control) and 100 μg/ml (treated) of 2 to 45 base sequences containing A, C, G and T for 48 h.
(§4) Cell proliferation was measured using dimethylthiazol-diphenyl-tetrazolium (MTT) reduction (Mosman et al. J. Immunol. Methods 65:55, 1983). MTT was measured at a wavelength of 570 nm using a multiplate spectrophotometer reader (ELX800, Bio-TEK Instruments Inc., Winooski, Vt.).
(§5) D-17 canine osteosarcoma cells and CF-51 canine mammary gland cancer cells are solid tumor models. D-17 canine osteosarcoma cells (5×10^5 cells/ml) (Table 20) and CF-51 canine mammary gland cancer cells (5×10^5 cells/ml) (Table 21) were incubated with 6, 9, 17, 27 and 33 base GT-sequences and with a 15 base ACG sequence.

[7] = tested on: CF-51 canine mammary gland cancer cells; assay: Inhibition of CF-51 cell proliferation (MTT); assay type: cell-based; conditions: 100 μg/ml, 48 h, 5×10^5 cells/ml
Experimental: as §3, §4, §5

[8] = tested on: EL-4 murine T lymphoma cells; assay: Inhibition of EL-4 cell proliferation (MTT); assay type: cell-based; conditions: 100 μg/ml, 48 h
Experimental: as §3, §4
EL-4 murine lymphoma T cells are a suspension tumor model. EL-4 murine lymphoma T cells were incubated with 6, 18, 27 and 33 base GT sequences and with a 15 base ACG sequence (Table 18).

[9] = Melting temperature (Tm) of sequences; assay type: physicochemical
[10] = tested on: MCF-7 human breast cancer cells; assay: Inhibition of MCF-7 cell proliferation (MTT); assay type: cell-based
Summary of the method: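 Cells at 2.5×10^5 cells/ml (GT 3- and 6-base series at 5×10^5 cells/ml) treated with 100 μg/ml of 2-45-base oligonucleotide sequences versus untreated control for 48 h at 37 °C, 5% CO2. Proliferation read by MTT reduction at 570 nm.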

[11] = tested on: EL-4 murine T lymphoma cells; assay: EL-4 murine T lymphoma in C57/BL6 mice; assay type: in vivo; conditions: after 4 weeks of treatment, compared with group 1 (saline)
Experimental: EL-4 murine T lymphoma cells are implanted into C57/BL6 mice. The mice are divided into 6 groups of 10 mice. On day 0, group 1 mice receive saline, group 2 mice receive 3 base GT SEQ ID NO:8, group 3 mice receive 6 base SEQ ID NO:25, group 4 mice receive 6 base AG SEQ ID NO:45, group 5 mice receive 18 base GT SEQ ID NO: 18 and group 6 mice receive 27 base GT SEQ ID NO:1. After 4 weeks of treatment, the mice are sacrificed and tumor mass is determined.

[12] = tested on: Jurkat human leukemia T cells; assay: NuMA release into supernatant (ELISA); assay type: cell-based; conditions: Jurkat 1×10^6/ml
Summary of the method: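 Jurkat T cells (1×10^6/ml) exposed to GT-containing oligonucleotide sequences, at 50 μM in some experiments, for 24 h in some experiments. NuMA released into the supernatant quantified by commercial ELISA.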

[13] = tested on: LNCaP human prostate cancer cells; assay: LNCaP human prostate cancer xenografts in male nude nu/nu mice; assay type: in vivo; conditions: after 4 weeks of treatment, compared with other groups (group 1 saline, group 5 BCG A-3)
Experimental: LNCaP human prostate cancer cells are implanted subcutaneously, as xenografts, in male nude nu/nu mice. The mice are divided into 5 groups of 10 mice. On day 0, group 1 mice receive saline, group 2 mice receive 3 base SEQ ID NO:8, group 3 mice receive 6 base GT SEQ ID NO:25, group 4 mice receive 6 base AG SEQ ID NO:45 and group 5 mice receive 45 base BCG A-3 SEQ ID NO:69. After 4 weeks of treatment, the mice are sacrificed and timor mass is determined.

[14] = tested on: THP-1 human acute monocytic leukemia cells; assay: Cytokine production by THP-1 cells (ELISA); assay type: cell-based; conditions: THP-1, 1×10^6 cells, 100 μg/ml, 48 h
Summary of the method: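 Read-out is fold increase in supernatant cytokine versus control cells, measured by ELISA (IL-12 ELISA counts p70 complex plus free p40). Unless noted, sequences were tested at 100 μg/ml on 1×10^6 cells, incubated 48 h, 37° C, 5% CO2.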

[15] = 5-fluorouracil 0.1 μg/ml, alone or with sequence at 1.0 μg/ml
[16] = 5-fluorouracil 1.0 μg/ml, alone or with sequence at 1.0 μg/ml
[17] = 5-fluorouracil 10.0 μg/ml, alone or with sequence at 1.0 μg/ml
[18] = sequence at 1.0 μg/ml, 5-fluorouracil 0.0 μg/ml

AACCACAAGCCCAAC (DNA, backbone not given here) [SEQ ID NO:67]
processing of inactive pro-caspase 3 to active caspase 3 (caspase 3 [1]): did not induce processing of inactive pro-caspase 3 to active caspase 3
% INHIBITION of Jurkat human leukemia T cell proliferation [2]: 4%
caspase 3 activity greater than in control cells (caspase 3 [3]): approximately the same as in control cells
% at cells in apoptosis [4]: 0%
% of cells in phase: G0/G1 [5]: 39.6%
% of cells in phase: G2/M [5]: 24.6%
% of cells in phase: SE [5]: 13.5%
% of cells in phase: SL [5]: 9.5%
% of cells in phase: SM [5]: 12.8%
Arrest (cell cycle) [5]: None
cell cycle arrest ([5]; M. phlei murA derived sequences): No
% INHIBITION of D-17 canine osteosarcoma cell proliferation [6]: 20%
% INHIBITION of CF-51 canine mammary gland cancer cell proliferation [7]: 20%
% INHIBITION of EL-4 murine T lymphoma cell proliferation [8]: −6%

GGGTGGGGGTGG [SEQ ID NO:68]
% INHIBITION of Jurkat human leukemia T cell proliferation [2]: 18%
melting temperature (Tm) [9]: 56.8 °C

GGGTGGGGGTGGGGGTGG [SEQ ID NO:69]
% INHIBITION of Jurkat human leukemia T cell proliferation [2]: 5%
melting temperature (Tm) [9]: 76.3 °C

GGGTGGGGGTGGGGGTGGGGGTGG (unmodified DNA) [SEQ ID NO:70]
% INHIBITION of Jurkat human leukemia T cell proliferation [2]: 13%
melting temperature (Tm) [9]: 86.3 °C

GTGTGTGTGTGTGTGTGTGTGTGTGTG [SEQ ID NO:1] (chemistry not given here)
% INHIBITION of MCF-7 proliferation, 5-Fluorouracil 0.1 μg/ml [10, 15]: 24%
% INHIBITION of MCF-7 proliferation, 5-Fluorouracil 1.0 μg/ml [10, 16]: 35%
% INHIBITION of MCF-7 proliferation, 5-Fluorouracil 10.0 μg/ml [10, 17]: 33%
potentiation of antineoplastic effect of 5-fluorouracil on MCF-7 cell proliferation ([10]; sequence 1.0 μg/ml, 0.1 μg/ml 5-fluorouracil): did not potentiate
potentiation of antineoplastic effect of tamoxifen on MCF-7 cell proliferation ([10]; sequence 1.0 μg/ml, 0.1 μg/ml tamoxifen): did not potentiate
% INHIBITION of MCF-7 proliferation, 5-Fluorouracil 0.0 μg/ml [10, 18]: 8%
% INHIBITION of MCF-7 proliferation, Tamoxifen 0.0 μg/ml ([10]; sequence at 1.0 μg/ml, tamoxifen 0.0 μg/ml): 8%
% INHIBITION of MCF-7 proliferation, Tamoxifen 0.1 μg/ml ([10]; tamoxifen 0.1 μg/ml, alone or with sequence at 1.0 μg/ml): 19%
% INHIBITION of MCF-7 proliferation, Tamoxifen 1.0 μg/ml ([10]; tamoxifen 1.0 μg/ml, alone or with sequence at 1.0 μg/ml): 24%
% INHIBITION of MCF-7 proliferation, Tamoxifen 10.0 μg/ml ([10]; tamoxifen 10.0 μg/ml, alone or with sequence at 1.0 μg/ml): 20%
% INHIBITION of Jurkat human leukemia T cell proliferation [2]: 51%
% INHIBITION of Jurkat proliferation, 5-Fluorouracil 0.1 μg/ml [2, 15]: 15%
% INHIBITION of Jurkat proliferation, 5-Fluorouracil 1.0 μg/ml [2, 16]: 25%
% INHIBITION of Jurkat proliferation, 5-Fluorouracil 10.0 μg/ml [2, 17]: 41%
% INHIBITION of Jurkat proliferation, Cisplatin 0.1 μg/ml ([2]; cisplatin 0.1 μg/ml, alone or with sequence at 1.0 μg/ml): 18%
% INHIBITION of Jurkat proliferation, Cisplatin 1.0 μg/ml ([2]; cisplatin 1.0 μg/ml, alone or with sequence at 1.0 μg/ml): 35%
% INHIBITION of Jurkat proliferation, Cisplatin 10.0 μg/ml ([2]; cisplatin 10.0 μg/ml, alone or with sequence at 1.0 μg/ml): 76%
potentiation of antineoplastic effect of 5-fluorouracil on Jurkat T cell proliferation ([2]; sequence 1.0 μg/ml, 0.1 and 1.0 μg/ml 5-fluorouracil): potentiated
% INHIBITION of Jurkat proliferation, 5-Fluorouracil 0.0 μg/ml [2, 18]: 3%
% INHIBITION of Jurkat proliferation, Cisplatin 0.0 μg/ml ([2]; sequence at 1.0 μg/ml, cisplatin 0.0 μg/ml): 3%
% of cells in phase: G0/G1 [5]: 40.6%
% of cells in phase: G2/M [5]: 0.3%
% of cells in phase: SE [5]: 35.6%
% of cells in phase: SL [5]: 9.3%
% of cells in phase: SM [5]: 14.2%
Arrest (cell cycle) [5]: End SE
tumor mass [11]: less tumor mass than group 1 mice
% INHIBITION of D-17 canine osteosarcoma cell proliferation [6]: 23%
% INHIBITION of CF-51 canine mammary gland cancer cell proliferation [7]: 23%
% NUMA RELEASED [12]: 22%
% INHIBITION of EL-4 murine T lymphoma cell proliferation [8]: 1%

TCCATCGCCAAGGAGATCGAGCTGGAGGATCCGTACGAGAAGATC (unmodified DNA) [BCG A-3, reference compound]
tumor mass [13]: less tumor mass than group 1 mice
% INHIBITION of Jurkat human leukemia T cell proliferation [2]: 24%
↑ IL-6 (fold increase treated vs control cells) [14]: 2.5x
↑ IL-12 (fold increase treated vs control cells) ([14]; p70 complex and free p40): 1.7x
% of cells in phase: G0/G1 [5]: 32.3%
% of cells in phase: G2/M [5]: 21.4%
% of cells in phase: SE [5]: 20.2%
% of cells in phase: SL [5]: 12.0%
% of cells in phase: SM [5]: 14.1%
Arrest (cell cycle) [5]: None
